What was measured:
[1] = system: fast inward sodium channel (TTX-sensitive) of isolated rat hippocampal neurons; test: Voltage-clamp recording of fast inward sodium current (INa); type: cell-based
[2] = system: fast inward sodium channels (TTX-sensitive) of rat hippocampal neurons; test: Aggregation time course versus impact on inward sodium current and other neuronal parameters; type: cell-based
[3] = system: calcium ion channel of isolated hippocampal neurons; test: Voltage-clamp recording of neuronal inward calcium current; type: cell-based, rat; conditions: 50 μM amyloid β 1-40, about 70 minutes shake-induced aggregation
Description: (§1) For all studies as described herein, single neurons freshly dissociated from adult rats (Chad et al, In, Cellular Neurobiology, Ed. J. Chad and H. Wheal, Oxford University Press (1991)) were examined using the suction pipette method (Lee et al., J. Neurosc. Methods, 2; 51-78 (1980)) under current- or voltage-clamp, with use of an Axopatch 200 Amplifier (Axon Instruments, Foster City, Calif.). Amyloid β1-40 was obtained from Polypeptide Laboratories, Torrance, Calif., or from Bachem Biochemica, Heidelberg, Germany.
In this experiment, the effect of amyloid β 1-40 on the calcium ion channel was studied using the methods described in Experiment 2 for the sodium channel.

[4] = system: isolated adult rat cortical and hippocampal neurons; test: Current-clamp recording of resting membrane potential and action potentials of single neurons (suction pipette); type: cell-based
Description: as §1
Shaken aggregation assays (i.e., as in Examples 1-4) were performed as described previously (e.g., Findeis et al., Biochemistry, 38, 6791-6800 (1999)). This aggregation performed prior to use of the aggregated amyloid for contacting cells was done in the same media as the cells were contained, i.e., Hank's Balanced Salt Solution. Aggregation of amyloid for kinetic studies (i.e., as in Example 5), was done in a buffer composed of 10 mM phosphate, 100 mM NaCl, pH 7.4. […] At given times, the turbidities of the reaction mixture were read by measuring light scattering at 405 nm in a Molecular Devices (Menlo Park, Calif.) Vmax Microplate Reader. […]
In current-clamp, the resting membrane potential and action potentials of single neurons were continuously monitored for at least 10-20 minutes until the neuronal activity became stable. […]

[5] = system: potassium ion channel of isolated neurons; test: Voltage-clamp recording of potassium currents; type: cell-based, rat
Description: as §1
In this experiment, the effect of amyloid β 1-40 on the potassium ion channel was studied using the methods described in Experiment 2 for the sodium channel.
In voltage-clamp, within the first 2-5 minutes, in some cells the peptide induced an outward holding current measuring about 10-50 pA, but this small current was enough to hyperpolarize the resting membrane potential from −50 mV to −90 mV. In other cells, the peptide instead caused a gradual depolarization to about −40 mV due to a slight inhibition of the outward holding current. In all cells, amyloid β 1-40 blocked the delayed outward potassium current by about 30-40% at all step potentials.

NC1=N[C@H](O)[C@H]2[C@H]3O[C@]4(O)O[C@@H]([C@@H](O)[C@@]2(N1)[C@@H]4O)[C@]3(O)CO [tetrodotoxin (TTX), tetrodotoxin]
sensitivity of fast inward sodium current to blocker [1]: sensitive

Monomers of amyloid β 1-40: Non-aggregated monomeric form of amyloid β 1-40
impact on the parameters assessed (resting potential, action potential, sodium, calcium, potassium channels) ([2]; monomeric form, before aggregation): did not show significant impact

amyloid β 1-40
time of shake-induced aggregation giving peak impact on sodium channel activity (% decrease in INa) ([2]; 50 μM amyloid β 1-40): 60 to 80 min
inhibition level of the fast inward sodium channels after saturation of peptide aggregation ([2]; after reaching saturation of aggregation, mean values of four experiments): > 50%
effect on neuronal inward calcium currents [3]: depress neuronal inward calcium currents
effect on action potentials ([4]; 11.5 μM amyloid β 1-40 added to cortical and hippocampal neurons): abrogation of action potentials
time of peptide exposure until action potentials disappeared altogether in most neurons ([4]; 10-50 μM amyloid β 1-40 preaggregated for different times): 20 to 30 min
reversibility of effect on fast inward sodium current on wash out ([1]; 50 μM amyloid β 1-40, about 90 and 120 minutes shake-induced aggregation, hippocampal neuron): cannot wash out
block of fast inward sodium current ([1]; 10-50 μM amyloid β 1-40 aggregated for various times, in about 5-30 minutes, holding potential −50 to −80 mV): ≤ 90%
block of delayed outward potassium current ([5]; all cells, at all step potentials): 30-40%
resting membrane potential after hyperpolarization (from −50 mV) ([5]; cells in which an outward holding current was induced): −90 mV
membrane potential after gradual depolarization ([5]; other cells, slight inhibition of the outward holding current): about −40 mV
induced outward holding current ([5]; voltage-clamp, within the first 2-5 minutes, in some cells): 10-50 pA

low molecular weight peptide aggregates of amyloid β 1-40 monomer: Low molecular weight aggregates (e.g. tetramer) of amyloid β 1-40
relative potency for inhibiting the fast inward sodium channels ([2]; compared with monomers or polymers): higher potency

Reference: patent publication US6589747B2, “Method for identifying compounds that modulate the interaction of amyloid beta or its aggregates with a voltage gated sodium channel” (priority 1999, dated 2003)
